How the values were obtained:
[1] = biological target: T1, Alpha-1A adrenergic receptor (Homo sapiens, UniProt P35348); format: functional, cell-based
T1 sequence (P35348 whole entry): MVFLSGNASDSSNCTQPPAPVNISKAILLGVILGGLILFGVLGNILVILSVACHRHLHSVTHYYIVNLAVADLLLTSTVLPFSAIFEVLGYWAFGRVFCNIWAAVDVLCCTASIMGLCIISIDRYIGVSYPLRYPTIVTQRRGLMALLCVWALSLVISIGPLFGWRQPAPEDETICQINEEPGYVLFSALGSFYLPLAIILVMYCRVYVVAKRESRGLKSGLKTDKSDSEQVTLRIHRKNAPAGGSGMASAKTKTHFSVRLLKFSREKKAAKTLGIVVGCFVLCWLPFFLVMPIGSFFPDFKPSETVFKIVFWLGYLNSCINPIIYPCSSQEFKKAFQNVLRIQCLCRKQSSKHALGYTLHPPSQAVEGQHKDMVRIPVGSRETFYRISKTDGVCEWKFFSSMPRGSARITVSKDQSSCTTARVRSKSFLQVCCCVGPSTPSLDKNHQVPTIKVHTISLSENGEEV

Bile acid receptor = biological target: T2, Bile acid receptor (Homo sapiens, UniProt Q96RI1); format: functional
T2 sequence (Q96RI1 whole entry): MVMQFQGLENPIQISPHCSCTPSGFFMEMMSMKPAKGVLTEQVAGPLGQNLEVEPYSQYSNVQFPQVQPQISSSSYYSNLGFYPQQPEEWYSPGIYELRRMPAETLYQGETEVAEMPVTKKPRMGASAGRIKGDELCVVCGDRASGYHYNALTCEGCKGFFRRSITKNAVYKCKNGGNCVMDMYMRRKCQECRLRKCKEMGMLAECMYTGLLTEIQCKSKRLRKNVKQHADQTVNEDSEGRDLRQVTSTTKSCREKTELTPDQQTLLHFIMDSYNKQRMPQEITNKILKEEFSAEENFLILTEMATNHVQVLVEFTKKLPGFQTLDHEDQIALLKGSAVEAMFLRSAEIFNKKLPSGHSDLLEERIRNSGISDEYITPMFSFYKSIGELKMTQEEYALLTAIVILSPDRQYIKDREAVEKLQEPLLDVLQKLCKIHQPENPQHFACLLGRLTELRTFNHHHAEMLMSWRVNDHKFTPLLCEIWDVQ

[2] = biological target: T3, Peroxisome proliferator-activated receptor alpha (Homo sapiens, UniProt Q07869); format: functional
T3 sequence (Q07869 whole entry): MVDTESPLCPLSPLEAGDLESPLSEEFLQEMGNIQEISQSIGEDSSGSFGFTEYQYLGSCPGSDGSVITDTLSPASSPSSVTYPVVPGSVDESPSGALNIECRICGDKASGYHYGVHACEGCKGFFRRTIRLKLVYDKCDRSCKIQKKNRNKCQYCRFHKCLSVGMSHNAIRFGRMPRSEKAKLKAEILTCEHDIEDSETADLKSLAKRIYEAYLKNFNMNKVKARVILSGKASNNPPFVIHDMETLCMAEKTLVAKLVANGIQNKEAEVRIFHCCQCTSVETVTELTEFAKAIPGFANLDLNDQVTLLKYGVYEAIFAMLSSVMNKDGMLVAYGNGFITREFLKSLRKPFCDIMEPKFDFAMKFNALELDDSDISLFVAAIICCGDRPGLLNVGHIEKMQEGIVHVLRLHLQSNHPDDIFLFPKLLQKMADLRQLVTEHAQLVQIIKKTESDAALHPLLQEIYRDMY

[3] = biological target: T4, Retinoic acid receptor gamma (Homo sapiens, UniProt P13631); format: functional, cell-based
T4 sequence (P13631 whole entry): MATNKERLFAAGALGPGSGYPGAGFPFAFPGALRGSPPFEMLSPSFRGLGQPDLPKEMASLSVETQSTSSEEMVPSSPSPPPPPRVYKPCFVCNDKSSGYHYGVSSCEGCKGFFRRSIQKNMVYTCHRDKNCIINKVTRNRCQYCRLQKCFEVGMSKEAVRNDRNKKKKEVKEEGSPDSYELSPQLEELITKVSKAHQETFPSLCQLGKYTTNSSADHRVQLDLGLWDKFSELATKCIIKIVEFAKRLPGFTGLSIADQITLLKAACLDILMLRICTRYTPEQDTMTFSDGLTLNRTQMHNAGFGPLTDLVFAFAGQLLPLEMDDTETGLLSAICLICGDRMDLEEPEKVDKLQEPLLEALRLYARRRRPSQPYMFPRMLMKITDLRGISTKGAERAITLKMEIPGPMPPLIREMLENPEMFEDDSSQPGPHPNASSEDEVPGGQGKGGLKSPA

[4] = biological target: T4, Retinoic acid receptor gamma; format: functional, cell-based; remark: listed apart in the source
Note: assay procedure not described here.

Compound: N=C(N)NC(=O)Cc1c(Cl)cccc1Cl [GUANFACINE]
- AC50 [1]: 9.3 nM

Compound: CC(=O)N1CCN(c2ccc(OCC3COC(Cn4ccnc4)(c4ccc(Cl)cc4Cl)O3)cc2)CC1 (stereo not given) [KETOCONAZOLE]
- AC50 (Bile acid receptor): 15 µM
- AC50 [2]: > 30 µM
- AC50 [3]: > 30 µM
- AC50 [4]: > 30 µM

— ChEMBL document CHEMBL5291721, “A preclinical secondary pharmacology resource illuminates target-adverse drug reaction associations of marketed drugs” (Nat Commun, 2023)
